# According to paper PMC11062922 (Nature Chemical Biology, 2023):
# Biological target: T1, BMPR2 (Homo sapiens, UniProt Q13873)
# T1 construct: to maximize the representation of endogenous proteins; endogenous in cells
# T1 sequence (Q13873 27-1038): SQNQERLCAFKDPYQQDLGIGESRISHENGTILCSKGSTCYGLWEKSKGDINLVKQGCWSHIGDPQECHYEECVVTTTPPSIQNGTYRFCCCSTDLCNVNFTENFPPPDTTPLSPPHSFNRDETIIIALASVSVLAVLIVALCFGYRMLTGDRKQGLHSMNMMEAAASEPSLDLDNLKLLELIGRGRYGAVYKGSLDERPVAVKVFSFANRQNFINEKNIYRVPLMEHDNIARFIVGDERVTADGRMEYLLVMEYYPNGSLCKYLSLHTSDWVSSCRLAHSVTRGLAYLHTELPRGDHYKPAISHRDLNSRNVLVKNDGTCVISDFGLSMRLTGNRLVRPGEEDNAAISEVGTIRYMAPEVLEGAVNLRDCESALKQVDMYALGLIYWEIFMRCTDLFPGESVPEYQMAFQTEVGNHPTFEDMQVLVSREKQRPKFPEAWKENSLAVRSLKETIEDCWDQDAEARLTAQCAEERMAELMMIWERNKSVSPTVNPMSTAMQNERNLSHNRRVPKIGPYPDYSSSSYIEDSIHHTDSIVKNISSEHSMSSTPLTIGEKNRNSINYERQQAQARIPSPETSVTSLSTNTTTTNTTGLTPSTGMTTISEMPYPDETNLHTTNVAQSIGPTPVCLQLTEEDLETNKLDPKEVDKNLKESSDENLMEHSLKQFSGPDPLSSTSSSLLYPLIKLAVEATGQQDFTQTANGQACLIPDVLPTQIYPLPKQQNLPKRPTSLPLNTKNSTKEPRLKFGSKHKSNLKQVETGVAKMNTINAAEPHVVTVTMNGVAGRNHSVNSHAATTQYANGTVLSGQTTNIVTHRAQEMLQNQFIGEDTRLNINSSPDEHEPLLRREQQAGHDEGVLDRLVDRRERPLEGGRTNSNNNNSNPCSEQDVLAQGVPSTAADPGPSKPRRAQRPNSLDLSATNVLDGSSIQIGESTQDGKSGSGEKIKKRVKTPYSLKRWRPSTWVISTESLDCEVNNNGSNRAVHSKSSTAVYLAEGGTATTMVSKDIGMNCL
# Test: Kinobeads two-dose competition binding: BMPR2
# Conditions: Kinobeads two-dose, Drugmatrix - all 2; read-out: apparent Kd BMPR2
# Text: Briefly, Kinobeads comprise seven broad-spectrum small molecule kinase inhibitors immobilized on Sepharose beads. […]. Compounds of interest are set to compete for target protein binding with Kinobeads in the lysate and the amount of a given protein bound to Kinobeads in the presence of a compound can be quantified relative to a dimethylsulfoxide (DMSO) vehicle control by label-free mass spectrometry. This assay measures the physical interaction of a compound with thousands of endogenous proteins in parallel and, when systematically increasing the concentration of competitor, enables the calculation of an apparent interaction constant ( Kdapp ) for each compound and protein.
# Kinobeads pulldown experiments were performed as described previously[13],[14],[17] with minor modification. […] The protein concentration was adjusted to 5 mg ml^−1. Kinase inhibitors were spiked into 0.5 ml of cell lysate at final concentrations of 100 and 1,000 nM (or DMSO, 0.3, 1, 3, 10, 30, 100, 300 and 1,000 nM for full dose experiments). […] Lysates were incubated for 45 min at 4 °C. Subsequently, lysates were incubated with Kinobeads ε (17.5 µl of settled beads) for 30 min at 4 °C. To assess the degree of protein depletion from the lysates by Kinobeads, the flow through of the DMSO control was recovered for a pulldown of pulldown experiment where the lysate was incubated a second time with fresh Kinobeads. Beads were washed in three steps with buffer containing 0.4%, 0.2% and no IGEPAL. Bound proteins were reduced with 50 mM DTT in 8 M Urea, 40 mM Tris-HCl pH 7.4 for 30 min at room temperature. After alkylation with 55 mM chloroacetamide, the urea concentration was reduced to 1–2 M and proteins were digested with trypsin. Acidified peptides were desalted and concentrated using SepPak tC18 µEluation plates (Waters). Samples were frozen, dried by vacuum centrifugation and stored at −20 °C.
# Each kinase inhibitor was processed together with all DMSO controls of the same plate. Additionally, each search was supplemented with five high quality DMSO controls for consistent peptide identification and protein grouping. The resultant file (proteinGroups.txt) was used for subsequent filtering, normalization, data visualization and target annotation that was automatically performed by a data processing pipeline built in house that used R (including the ‘drc’ and ‘heatmap’ packages). First, reverse hits, potential contaminants and not quantified proteins in the DMSO control samples were discarded. Protein raw and label-free quantification intensities were normalized to the median DMSO control intensity to obtain relative residual binding intensities for each protein group at every inhibitor concentration and standard deviations of the DMSO control intensity were calculated. IC50 values were estimated based on the following equation IC50=I×100−inhibition/inhibition where [I] is the inhibitor concentration that was used for IC50 calculation and ‘inhibition’ the relative residual binding intensity. […]. Estimated Kdapp values were then calculated by multiplying the estimated IC50 values with a protein-dependent correction factor that was limited to a maximum value of one. The correction factor accounts for the depletion of a target protein from the lysate by Kinobeads. The depletion can be measured by the ratio of the amount of protein captured in two consecutive pulldowns of the same DMSO control lysate. In this study, correction factors were determined in separate experiments using the same lysate mixture and the same bead batch. Correction factors were set to the median of all correction factors. Targets of kinase inhibitors were annotated using the previously published random forest classifier. A training data set was annotated manually. […]
row,potency estimated from few doses [nM],SMILES
1,646,CC(C)N1CC(=O)N(C)c2cnc(Nc3cccc(S(=O)(=O)CCN4CCOCC4)c3)nc21 [BI00009348]

# Same assay, conditions: target BMPR2
row,SMILES,CATDS
1,CCN1CCN(Cc2ccc(Nc3ncc(F)c(-c4cc(F)c5nc(C)n(C(C)C)c5c4)n3)nc2)CC1 [Abemaciclib],0
2,CN(C)C/C=C/C(=O)Nc1cc2c(Nc3ccc(F)c(Cl)c3)ncnc2cc1O[C@H]1CCOC1 [Afatinib],0
3,CCc1cc2c(cc1N1CCC(N3CCOCC3)CC1)C(C)(C)c1[nH]c3cc(C#N)ccc3c1C2=O [Alectinib],0
4,Nc1ncnc2[nH]c(-c3ccccc3)nc12 [AH5015_KCGS],0
5,N#CC1(c2ccc(NC(=O)c3cccnc3NCc3ccncc3)cc2)CCCC1 [Apatinib],0
